Reference: PubChem BioAssay AID1963978 (Molecular Pharmacology Branch, DTP, NCI, 2024)

Test system: 616215-338-R-J1-PDC spheroids with HUVEC/MSC, viability
Assay: Anticancer human tumor 616215-338-R-J1-PDC patient-derived colon adenocarcinoma cell line growth inhibition [PI3K]
Conditions: for IC50: curve of first compound; for viability, T/C: stronger effect = lower value
Summary of the method: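 High-throughput combination screen: PI3K inhibitors crossed with targeted small molecules on complex spheroids of tumor cells, HUVEC and MSCs at 37 degrees C, 5% CO2. Top concentration was at or near clinical Cmax (otherwise 10 microM), with half-log decrements.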

[1] = second compound 0.00316 µM, first compound 0.0316 µM
[2] = second compound 0.00316 µM, first compound 0.1 µM
[3] = second compound 0.00316 µM, first compound 0.316 µM
[4] = second compound 0.00316 µM, first compound 1 µM
[5] = second compound 0.00316 µM, first compound 3.16 µM
[6] = second compound 0.00316 µM, first compound 10 µM
[7] = second compound 0.01 µM, first compound 0.0316 µM
[8] = second compound 0.01 µM, first compound 0.1 µM
[9] = second compound 0.01 µM, first compound 0.316 µM
[10] = second compound 0.01 µM, first compound 1 µM
[11] = second compound 0.01 µM, first compound 3.16 µM
[12] = second compound 0.01 µM, first compound 10 µM
[13] = second compound 0.0316 µM, first compound 0.0316 µM
[14] = second compound 0.0316 µM, first compound 0.1 µM
[15] = second compound 0.0316 µM, first compound 0.316 µM
[16] = second compound 0.0316 µM, first compound 1 µM
[17] = second compound 0.0316 µM, first compound 3.16 µM
[18] = second compound 0.0316 µM, first compound 10 µM
[19] = second compound 0.1 µM, first compound 0.0316 µM
[20] = second compound 0.1 µM, first compound 0.1 µM
[21] = second compound 0.1 µM, first compound 0.316 µM
[22] = second compound 0.1 µM, first compound 1 µM
[23] = second compound 0.1 µM, first compound 3.16 µM
[24] = second compound 0.1 µM, first compound 10 µM
[25] = second compound 0.316 µM, first compound 0.0316 µM
[26] = second compound 0.316 µM, first compound 0.1 µM
[27] = second compound 0.316 µM, first compound 0.316 µM
[28] = second compound 0.316 µM, first compound 1 µM
[29] = second compound 0.316 µM, first compound 3.16 µM
[30] = second compound 0.316 µM, first compound 10 µM
[31] = second compound 1 µM, first compound 0.0316 µM
[32] = second compound 1 µM, first compound 0.1 µM
[33] = second compound 1 µM, first compound 0.316 µM
[34] = second compound 1 µM, first compound 1 µM
[35] = second compound 1 µM, first compound 3.16 µM
[36] = second compound 1 µM, first compound 10 µM
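Also: spheroids exposed to agents for seven days before the viability read.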

C#Cc1c(F)ccc2cc(O)cc(-c3ncc4c(N5CC6CCC(C5)N6)nc(OCC56CCCN5CC(F)C6)nc4c3F)c12 (centres undefined) + COc1c(OCCCN2CCOCC2)ccc2c3n(c(=NC(=O)c4cnc(N)nc4)nc12)CCN3
IC50 (second compound 0.00316 µM): > 10 µM
IC50 (second compound 0.01 µM): 7.8 µM
IC50 (second compound 0.0316 µM): 8.36 µM
IC50 (second compound 0.1 µM): 5.99 µM
IC50 (second compound 0.316 µM): < 0.0316 µM
IC50 (second compound 1 µM): < 0.0316 µM
viability, T/C [1]: 95.5%
viability, T/C [2]: 89.2%
viability, T/C [3]: 90.4%
viability, T/C [4]: 91.4%
viability, T/C [5]: 94.9%
viability, T/C [6]: 72%
viability, T/C [7]: 95.5%
viability, T/C [8]: 89.7%
viability, T/C [9]: 91.8%
viability, T/C [10]: 102%
viability, T/C [11]: 73.6%
viability, T/C [12]: 43.5%
viability, T/C [13]: 101%
viability, T/C [14]: 98.1%
viability, T/C [15]: 95.4%
viability, T/C [16]: 106%
viability, T/C [17]: 81.5%
viability, T/C [18]: 44.1%
viability, T/C [19]: 94%
viability, T/C [20]: 95.9%
viability, T/C [21]: 90.2%
viability, T/C [22]: 93.7%
viability, T/C [23]: 74.7%
viability, T/C [24]: 30.3%
viability, T/C [25]: 38.2%
viability, T/C [26]: 42.4%
viability, T/C [27]: 38.2%
viability, T/C [28]: 30.9%
viability, T/C [29]: 32.4%
viability, T/C [30]: 17.9%
viability, T/C [31]: 19.8%
viability, T/C [32]: 27.1%
viability, T/C [33]: 17.3%
viability, T/C [34]: 10.8%
viability, T/C [35]: 6.21%
viability, T/C [36]: 0.88%

CC(Cn1ccc(-c2ccc(C#N)c(Cl)c2)n1)NC(=O)c1cc(C(C)O)[nH]n1 (centres undefined) + COc1c(OCCCN2CCOCC2)ccc2c3n(c(=NC(=O)c4cnc(N)nc4)nc12)CCN3
IC50 (second compound 0.00316 µM): > 10 µM
IC50 (second compound 0.01 µM): > 10 µM
IC50 (second compound 0.0316 µM): > 10 µM
IC50 (second compound 0.1 µM): > 10 µM
IC50 (second compound 0.316 µM): < 0.0316 µM
IC50 (second compound 1 µM): < 0.0316 µM
viability, T/C [1]: 93.9%
viability, T/C [2]: 93.3%
viability, T/C [3]: 88.6%
viability, T/C [4]: 95.8%
viability, T/C [5]: 104%
viability, T/C [6]: 91.3%
viability, T/C [7]: 99.4%
viability, T/C [8]: 86.7%
viability, T/C [9]: 100%
viability, T/C [10]: 90.8%
viability, T/C [11]: 90.3%
viability, T/C [12]: 86.2%
viability, T/C [13]: 99.1%
viability, T/C [14]: 102%
viability, T/C [15]: 99.9%
viability, T/C [16]: 109%
viability, T/C [17]: 93.2%
viability, T/C [18]: 84.2%
viability, T/C [19]: 90.8%
viability, T/C [20]: 91.4%
viability, T/C [21]: 90.2%
viability, T/C [22]: 96.8%
viability, T/C [23]: 89.2%
viability, T/C [24]: 83.4%
viability, T/C [25]: 35.2%
viability, T/C [26]: 34.7%
viability, T/C [27]: 45.3%
viability, T/C [28]: 33.5%
viability, T/C [29]: 36%
viability, T/C [30]: 28.5%
viability, T/C [31]: 27.7%
viability, T/C [32]: 17.2%
viability, T/C [33]: 20.3%
viability, T/C [34]: 24.8%
viability, T/C [35]: 18.8%
viability, T/C [36]: 17.8%
